Laboratory results taken from US20230382925A1, “MODULATORS OF CYSTIC FIBROSIS TRANSMEMBRANE CONDUCTANCE REGULATOR” (VERTEX PHARMACEUTICALS INCORPORATED, priority 2020, published 2023).

Molecular target: CFTR (Homo sapiens, UniProt P13569)
Assay: standard Ussing Chamber Assay for CFTR potentiator activity
Assay type: cell-based
Method: tert-Butyl N-[(6R,12R)-6-benzyloxy-12-methyl-6,15-bis(trifluoromethyl)-13,19-dioxa-3,4,18-triazatricyclo[12.3.1.12,5]nonadeca-1(18),2,4,14,16-pentaen-17-yl]-N-tert-butoxycarbonyl-carbamate (8.6 g, 11.77 mmol) was dissolved in ethanol (172 mL) then the flask was cycled 3 times between vacuum/nitrogen. Treated the mixture with 10% Pd/C (50% water wet, 1.8 g of 5% w/w, 0.8457 mmol) then cycled 3 times between vacuum/nitrogen and 3 times between vacuum/hydrogen and then stirred vigorously under hydrogen (balloon) at room temperature for 18 h. The mixture was cycled 3 times between vacuum/nitrogen, filtered over Celite washing with ethanol and then the filtrate was evaporated to give 7.3 g of tert-butyl N-tert-butoxycarbonyl-N-[(6R,12R)-6-hydroxy-12-methyl-6,15-bis(trifluoromethyl)-13,19-dioxa-3,4,18-triazatricyclo[12.3.1.12,5]nonadeca-1(18),2,4,14,16-pentaen-17-yl]carbamate an off-white solid. 1H NMR and MS confirmed the expected product. CFTR modulatory activity was confirmed using a standard Ussing Chamber Assay for CFTR potentiator activity.

CFTR, sequence (P13569 whole entry, species assumed): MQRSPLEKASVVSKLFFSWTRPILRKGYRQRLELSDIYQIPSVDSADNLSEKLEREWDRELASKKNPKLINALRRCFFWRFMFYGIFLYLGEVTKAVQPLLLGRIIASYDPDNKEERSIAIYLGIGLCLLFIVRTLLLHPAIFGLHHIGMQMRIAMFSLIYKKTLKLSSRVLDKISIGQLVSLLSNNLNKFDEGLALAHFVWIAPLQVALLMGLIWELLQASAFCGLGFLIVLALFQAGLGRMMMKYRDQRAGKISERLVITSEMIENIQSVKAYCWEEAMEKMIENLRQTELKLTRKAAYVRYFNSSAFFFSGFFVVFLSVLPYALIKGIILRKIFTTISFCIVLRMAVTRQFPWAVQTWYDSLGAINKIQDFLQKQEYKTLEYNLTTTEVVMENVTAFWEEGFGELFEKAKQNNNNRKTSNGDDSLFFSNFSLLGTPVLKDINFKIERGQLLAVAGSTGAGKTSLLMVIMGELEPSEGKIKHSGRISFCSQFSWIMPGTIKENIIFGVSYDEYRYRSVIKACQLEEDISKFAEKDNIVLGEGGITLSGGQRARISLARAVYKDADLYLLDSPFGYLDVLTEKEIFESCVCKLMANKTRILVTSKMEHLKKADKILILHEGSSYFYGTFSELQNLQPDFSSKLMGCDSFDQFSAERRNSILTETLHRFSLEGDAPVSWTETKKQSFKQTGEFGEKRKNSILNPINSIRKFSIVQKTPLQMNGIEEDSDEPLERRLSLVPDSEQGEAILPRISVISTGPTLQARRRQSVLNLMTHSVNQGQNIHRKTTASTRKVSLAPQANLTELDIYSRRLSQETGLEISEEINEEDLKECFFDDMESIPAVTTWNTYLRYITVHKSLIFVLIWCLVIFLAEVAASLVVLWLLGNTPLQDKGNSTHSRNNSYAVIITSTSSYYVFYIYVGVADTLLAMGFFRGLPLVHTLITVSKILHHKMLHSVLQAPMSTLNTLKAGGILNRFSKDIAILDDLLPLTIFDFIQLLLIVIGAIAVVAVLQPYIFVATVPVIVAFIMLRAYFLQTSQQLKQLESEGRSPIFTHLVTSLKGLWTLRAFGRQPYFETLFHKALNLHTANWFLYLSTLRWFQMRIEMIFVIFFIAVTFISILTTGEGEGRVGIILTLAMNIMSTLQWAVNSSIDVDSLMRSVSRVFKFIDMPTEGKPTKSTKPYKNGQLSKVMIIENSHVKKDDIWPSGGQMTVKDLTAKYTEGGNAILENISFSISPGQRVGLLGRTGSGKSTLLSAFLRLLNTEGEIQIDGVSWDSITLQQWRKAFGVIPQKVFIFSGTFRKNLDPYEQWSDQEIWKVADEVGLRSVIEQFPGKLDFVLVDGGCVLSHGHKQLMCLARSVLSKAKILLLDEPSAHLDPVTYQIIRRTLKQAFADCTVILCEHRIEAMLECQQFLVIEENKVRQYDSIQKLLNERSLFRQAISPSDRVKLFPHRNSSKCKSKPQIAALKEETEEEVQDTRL

For `C[C@@H]1CCCCC[C@](O)(C(F)(F)F)C2=NN=C(O2)c2nc(c(C(F)(F)F)cc2N)O1` [(6R,12R)-17-amino-12-methyl-6,15-bis(trifluoromethyl)-13,19-dioxa-3,4,18-triazatricyclo[12.3.1.12,5] nonadeca-1(18),2,4,14,16-pentaen-6-ol], the “CFTR modulatory activity (potentiator activity)” value was “confirmed”.
